Blank lines part the entries; values can stand above or below the compound they belong to.
Assays:
adipose tissue explants [1] = experiment: Adipose tissue explants, FFA and glycerol release on stimulation with serotonin; format: cell-based, mice; details: white adipose tissue explants, ex vivo
Method: (§1) Epigonadal fat pads were isolated from 8 week old wild type male mice, cut into 20 mg fragments, and placed in culture medium (DMEM low glucose, 0.1% bovine serum albumin, both from Invitrogen) in a cell incubator (37° C., 5% CO2 atmosphere) for 2 h. After this time, the fat explants were stimulated for 2 h with different concentrations of serotonin. Concentrations of free fatty acids (FFA) and glycerol were measured in the medium. For gene expression analysis, tissue was homogenized in TRIZOL® reagent (Sigma) and RNA was isolated according to the manufacturer's instructions. The RNA was used as a template for cDNA synthesis (cDNA synthesis kit, Invitrogen). The relative gene expression was quantified using Real Time PCR.

adipose tissue explants [2] = experiment: Adipose tissue explants, mRNA expression of lipolysis genes (Real Time PCR); format: cell-based, mice; details: 25 μM serotonin, vs untreated control
Method: as §1

ApoE−/− mice [3] = experiment: Atherosclerotic plaque area in Oil Red O stained aortas, ApoE−/− mice; format: in vivo; details: vs placebo
Text: (§2) To study the effect of gut-derived serum or plasma serotonin on the development of atherosclerosis, two well-studied genetic mouse models of hypercholesterolemia and atherosclerosis were used, namely mice with deletions in both copies of the apoliprotein E gene (referred to as ApoE−/− mice) and mice carrying deletions of both copies of the low density lipoprotein receptor gene (LDLR−/− mice). These mice have elevated blood cholesterol levels due to a defect in hepatic clearance of cholesterol containing very low density lipoproteins and low density lipoproteins (Ishibashi et al., 1993, J. Clin. Invest. 92:883-893; Plump et al., 1992, Cell 71:343-353). To accelerate the process of atherosclerotic plaque development, the mice were placed on a high cholesterol rodent diet at 5 weeks of age and fed this diet for 12 weeks. […]
(§3) After 12 weeks of high cholesterol diet and administration of therapeutic agent or placebo, the mice were sacrificed to determine the amount of atheromas in their aortas. […] A quantitative computer-assisted image analysis (ImageJ) of the plaque staining areas was performed and correlated with the whole vessel wall areas.

LDLR−/− mice [4] = experiment: Atherosclerotic plaque area in Oil Red O stained aortas, LDLR−/− mice; format: in vivo; details: vs placebo
Text: as §2, §3

ApoE−/− mice [5] = experiment: Plasma serotonin determination (ELISA), ApoE−/− mice; format: in vivo; details: high cholesterol diet 12 weeks, 200 mg per kg per day orally, vs placebo
Text: (§4) To study the effect of gut-derived serum or plasma serotonin on the development of atherosclerosis, two well-studied genetic mouse models of hypercholesterolemia and atherosclerosis were used, namely mice with deletions in both copies of the apoliprotein E gene (referred to as ApoE−/− mice) and mice carrying deletions of both copies of the low density lipoprotein receptor gene (LDLR−/− mice). These mice have elevated blood cholesterol levels due to a defect in hepatic clearance of cholesterol containing very low density lipoproteins and low density lipoproteins (Ishibashi et al., 1993, J. Clin. Invest. 92:883-893; Plump et al., 1992, Cell 71:343-353). To accelerate the process of atherosclerotic plaque development, the mice were placed on a high cholesterol rodent diet at 5 weeks of age and fed this diet for 12 weeks. During this period, the mice were orally administrated placebo (diluent) or LP-533401, an inhibitor of tryptophan hydroxylase 1 (TPH1), the key enzyme required for serum or plasma serotonin synthesis, at the dose of 200 mg per kg of body weight per day (FIG. 1).
Serotonin content in the plasma was determined using Serotonin research ELISA (IBL, Cat. No. IB89540) according to the manufacturer's instructions.

ApoE−/− mice [6] = experiment: Plasma cholesterol, triglyceride, glycerol and free fatty acid levels, ApoE−/− mice; format: in vivo
Text: as §4
(§5) Cholesterol, triglycerides, glycerol, and free fatty acids were measured in plasma from 4 hours fasted mice using commercially available kits (Cholesterol E, Wako, Cat. No. 439-17501; Triglycerides determination kit, Sigma, Cat. No. TR0100-1KT (measures both triglycerides and glycerol), HR Series NEFA-HR, Wako, Cat. No. 999-34691) according to the manufacturer's instructions.

LDLR−/− mice [7] = experiment: Plasma cholesterol and triglyceride levels, LDLR−/− mice; format: in vivo; details: high cholesterol diet, vs placebo
Text: as §2, §5

wild type mice = experiment: Plasma cholesterol, triglyceride, glycerol and free fatty acid levels, wild type mice; format: in vivo; details: vs placebo
Method: as §5

[8] = 2 h stimulation, all tested concentrations
[9] = ApoE−/− mice fed high cholesterol diet, vs placebo
[10] = ApoE−/− mice fed normal rodent chow diet, vs placebo

- expression of adipose triglyceride lipase (ATGL) (adipose tissue explants [2]): does not affect
- expression of hormone sensitive lipase (HSL) (adipose tissue explants [2]): promotes the expression
SMILES: NCCc1c[nH]c2ccc(O)cc12 [serotonin, 5-hydroxytryptamine]
- concentration giving the highest stimulation of FFA and glycerol secretion (adipose tissue explants [1]): 25 µM
- secretion of FFA from the adipose tissue (adipose tissue explants [1]; [8]): stimulated secretion
- secretion of glycerol from the adipose tissue (adipose tissue explants [1]; [8]): stimulated secretion
- expression levels of CGI58 (adipose tissue explants [2]): does not influence the expression levels
- expression levels of GOS2 (adipose tissue explants [2]): does not influence the expression levels
- expression levels of perilipin (adipose tissue explants [2]): does not influence the expression levels

SMILES: Nc1nc(OC(c2ccc(-c3cccc(F)c3)cc2)C(F)(F)F)cc(-c2ccc(C[C@H](N)C(=O)O)cc2)n1 (stereo partly drawn) [LP-533401]
- reduction of the area occupied by atherosclerotic plaques (ApoE−/− mice [3]; high cholesterol diet 12 weeks, 200 mg per kg of body weight per day orally): 44%
- atheroma formation (ApoE−/− mice [3]; FIG. 2): decreased atheroma formation
- reduction in the amount of atherosclerotic plaques (LDLR−/− mice [4]; high cholesterol diet 12 weeks, 200 mg per kg per day orally): 40%
- atheroma formation (LDLR−/− mice [4]; FIG. 3): lowers atheroma formation
- reduction of plasma serotonin levels (ApoE−/− mice [5]): 80%
- FFA levels (ApoE−/− mice [6]; [9]): reduced
- glycerol levels (ApoE−/− mice [6]; [9]): reduced
- FFA levels (ApoE−/− mice [6]; [10]): reduced
- glycerol levels (ApoE−/− mice [6]; [10]): reduced
- cholesterol levels in plasma, reduced in comparison to placebo (ApoE−/− mice [6]; ApoE−/− mice, high cholesterol diet, 200 mg per kg per day orally, 4 hours fasted): 30%
- triglyceride levels (ApoE−/− mice [6]; ApoE−/− mice, high cholesterol diet, vs placebo): does not alter triglyceride levels
- triglyceride levels (LDLR−/− mice [7]): does not alter triglyceride levels
- FFA levels (wild type mice): reduced
- cholesterol levels (wild type mice): did not alter cholesterol levels
- glycerol levels (wild type mice): reduced
- triglyceride levels (wild type mice): lowers triglyceride levels

From patent US20130338176A1, “METHODS OF PREVENTING AND TREATING HYPERLIPIDEMIA OR ATHEROSCLEROSIS” (The Trustees of Columbia University in the City of New York, priority 2010, published 2013)
